Data on 25 compounds can be found in paper PMC8890504, “Evolution of Brain-Expressed Biogenic Amine Receptors into Olfactory Trace Amine-Associated Receptors” (Molecular Biology and Evolution, 2022).

Where “and” joins values, the source holds several entries; their conditions need not be identical. Equal entries are not always repeated.

Assay [1] concerns the target TARLL1b (Petromyzon marinus, UniProt A0AAJ7TCG4). The assay is described as follows: Cell-based receptor activation reporter assay (SEAP / Dual-Glo luciferase). Set-up: species or system sea lamprey. The following applies: for EC50: TARLL1b. Here is the method:
(§1) Fluorescence was measured with a BioTek Microplate reader.
In general terms: Reporter assays use an easily measured gene product as a stand-in for the process of interest.

For assay [2], the target named is TARLL4a (Petromyzon marinus, UniProt A0AAJ7T9R0). The assay is described as above. Set-up: species or system sea lamprey. The following applies: for EC50: TARLL4a; for ligand profile of TARLL4a: ligand library at 100 µM, fig. 4B, fig. S9B. As to the method: as §1
Chain of TARLL4a (A0AAJ7T9R0 entry or part of it): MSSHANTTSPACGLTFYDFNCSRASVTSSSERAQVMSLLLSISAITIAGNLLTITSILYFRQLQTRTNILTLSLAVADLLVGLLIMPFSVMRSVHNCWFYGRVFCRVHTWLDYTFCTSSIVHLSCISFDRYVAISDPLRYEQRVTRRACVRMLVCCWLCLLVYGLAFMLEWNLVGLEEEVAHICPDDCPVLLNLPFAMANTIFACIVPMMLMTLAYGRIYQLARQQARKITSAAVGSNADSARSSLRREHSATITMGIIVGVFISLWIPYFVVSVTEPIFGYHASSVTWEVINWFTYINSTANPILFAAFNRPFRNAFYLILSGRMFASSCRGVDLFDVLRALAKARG
Assay [3] addresses mouse HTR4 (Mus musculus, UniProt P97288). Briefly: cell-based. An excerpt:
(§2) Next, we conducted high-throughput screening to further explore the functional properties of these aminergic receptors. We cloned 248 TAARs from 11 mammals (human, mouse, rat, guinea pig, hamster, cat, horse, rabbit, sheep, rhesus, and wild boar), two reptiles (alligator and chicken), six teleosts (zebrafish, catfish, fugu, medaka, salmon, and pufferfish), one lobed-finned fish (coelacanth), one holost fish (spotted gar), and one cartilaginous fish (bamboo shark) (fig. 2A). We also cloned eight TARLs from coelacanth, zebrafish, catfish, fugu, medaka, spotted gar, shark, and 28 TARLLs from sea lamprey (supplementary table S2, Supplementary Material online). In addition, we cloned two HTR4s from mouse and zebrafish. We then challenged all of the cloned receptors with a ligand library comprised 97 amines at 100 µM.
(§3) HEK293 cells were plated onto poly-D-lysine (Sigma–Aldrich) preincubated 96-well plates (Corning) with 50 µl growth medium (DMEM medium with 10% BCS and 5% penicillin–streptomycin solution) and cultured for 18–24 h. Receptor plasmids were cotransfected with Cre-SEAP plasmid using polyethylenimine (PEI, Polysciences) and incubated at 37 °C with 5% CO2. About 4 h later, cells were incubated with or without test compounds diluted in serum-free DMEM for 48 h, followed by incubating for 2 h at 70 °C. After returning to room temperature, 50 µl supernatant from each well was incubated with an equal volume of 0.3 mM 4-methylumbelliferyl phosphate (4-MUP, Sigma–Aldrich) in 2 M diethanolamine bicarbonate (Sigma–Aldrich), pH 10.0 for 15 min. Fluorescence was measured with a BioTek Microplate reader.
(§4) Hana3A cells were plated onto 96-well plates (Greiner bio-one) with 50 µl growth medium (DMEM medium with 10% BCS and 5% penicillin–streptomycin solution with puromycin) and cultured at 37 °C with 5% CO2. After 18–24 h, cells in each well were cotransfected with 50 ng receptor plasmid, 10 ng CRE-Luc, 10 ng pRL-SV40, and 10 ng mRTPs using Lipofectamine 2000 (Invitrogen), and incubated for 18 h. Medium was then replaced by 25 µl CD293 (Invitrogen) containing 1% glutamine with or without test compounds for 4 h. The chemiluminescence of firefly luciferase and renilla luciferase were measured with a Biotek Microplate reader using the Dual-Glo Luciferase Assay System (Promega).

Assay [4] concerns the target mouse TAAR1 (Mus musculus, UniProt Q923Y8). The assay is described as follows: cell-based. To be noted: for response of mouse TAAR1: ligands at 10 µM, luciferase assay, fig. 5B.
Source text: as §2
We then compared the responses of HTR4 from mouse and zebrafish, TARL1 from zebrafish, catfish, fugu, medaka, spotted gar, and coelacanth, TARL2 from coelacanth and shark, TAAR1 from mouse and zebrafish to the 16 ligands at 10 µM (fig. 5B).
as §3, §4

Assay [5] deals with hamster TAAR3 (Mesocricetus auratus, UniProt A0A1U7Q6M0). Briefly: Cell-based receptor activation reporter assay (SEAP / Dual-Glo luciferase). Here is the method: as §1
Chain of hamster TAAR3 (A0A1U7Q6M0 entry or part of it): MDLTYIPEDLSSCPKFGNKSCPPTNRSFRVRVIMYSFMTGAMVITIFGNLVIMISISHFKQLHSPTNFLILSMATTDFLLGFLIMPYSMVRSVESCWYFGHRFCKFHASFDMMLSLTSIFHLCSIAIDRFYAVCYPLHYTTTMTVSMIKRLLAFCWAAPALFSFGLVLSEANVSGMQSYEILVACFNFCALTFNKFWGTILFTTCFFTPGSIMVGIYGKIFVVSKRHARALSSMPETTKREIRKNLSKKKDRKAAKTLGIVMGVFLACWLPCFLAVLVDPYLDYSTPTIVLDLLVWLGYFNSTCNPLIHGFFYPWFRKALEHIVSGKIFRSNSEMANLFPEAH
Assay [6] has as its target guinea pig TAAR3 (Cavia porcellus, UniProt H0W7C9). The assay is described as above. As to the method:
as §1

Assay [7] has as its target TARLL3h (Petromyzon marinus, UniProt A0A678XJN9). The assay is described as above. Set-up: species or system sea lamprey. As to the method: as §1
For assay [8], the target named is shark TAARS1b (Chiloscyllium punctatum, UniProt A0A401S5C1). The assay is described as above. Details: species or system bamboo shark. Here is the method: as §1
Chain of shark TAARS1b (A0A401S5C1 entry or part of it): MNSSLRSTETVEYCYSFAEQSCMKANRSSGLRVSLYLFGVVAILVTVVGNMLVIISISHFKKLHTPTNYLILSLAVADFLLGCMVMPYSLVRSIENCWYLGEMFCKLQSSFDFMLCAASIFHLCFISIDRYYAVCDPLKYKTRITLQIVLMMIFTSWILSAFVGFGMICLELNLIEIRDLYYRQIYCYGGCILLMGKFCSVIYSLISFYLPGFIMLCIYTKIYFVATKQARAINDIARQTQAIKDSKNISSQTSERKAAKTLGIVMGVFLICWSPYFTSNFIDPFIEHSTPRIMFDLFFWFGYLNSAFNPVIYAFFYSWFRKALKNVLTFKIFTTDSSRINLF
Assay [9] has as its target sheep TAAR5 (Ovis aries, UniProt A0ACI6PZ16). Described as above. Here is the method: as §1
In assay [10] the target is coelacanth TARL2 (Latimeria chalumnae, UniProt H3AWX3). Described as above. As to the method: as §1
Chain of coelacanth TARL2 (H3AWX3 entry or part of it): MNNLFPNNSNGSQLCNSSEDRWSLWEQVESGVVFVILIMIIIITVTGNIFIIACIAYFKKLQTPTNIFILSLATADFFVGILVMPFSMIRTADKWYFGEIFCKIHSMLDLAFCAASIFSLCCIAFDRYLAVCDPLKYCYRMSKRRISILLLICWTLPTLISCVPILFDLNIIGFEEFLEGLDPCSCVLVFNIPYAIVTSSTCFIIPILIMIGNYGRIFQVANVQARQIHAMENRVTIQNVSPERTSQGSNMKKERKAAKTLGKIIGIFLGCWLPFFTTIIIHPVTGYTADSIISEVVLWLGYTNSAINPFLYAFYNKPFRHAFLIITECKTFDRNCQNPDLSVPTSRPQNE
The target in assay [11] is zebrafish TARL1 (Danio rerio, UniProt A0A8M1Q794). The description is as above. As to the method:
as §1

Assay [12] concerns the target coelacanth TAARC1b (Latimeria chalumnae, UniProt H3A8V0). The description is as above. As to the method:
as §1

Assay [13] has as its target (UniProt Z9G6W3R3V9). The assay is described as above. To be noted: coelacanth TARL1. Here is the method: as §1
For assay [14], the target named is zebrafish TAAR1 (Danio rerio, UniProt Q5QNN1). The description is as above. The following applies: zTAAR1. Here is the method:
as §1

Assay [15] addresses T1, rabbit TAAR9 (Oryctolagus cuniculus, UniProt G1SUU9).
T1 construct: Rho tag (N-terminal 20 aa of bovine rhodopsin); expressed in transfected cells; host or cells: HEK293T (SEAP assay) or Hana3A (Dual-Glo luciferase assay)
T1 sequence (G1SUU9 1-348): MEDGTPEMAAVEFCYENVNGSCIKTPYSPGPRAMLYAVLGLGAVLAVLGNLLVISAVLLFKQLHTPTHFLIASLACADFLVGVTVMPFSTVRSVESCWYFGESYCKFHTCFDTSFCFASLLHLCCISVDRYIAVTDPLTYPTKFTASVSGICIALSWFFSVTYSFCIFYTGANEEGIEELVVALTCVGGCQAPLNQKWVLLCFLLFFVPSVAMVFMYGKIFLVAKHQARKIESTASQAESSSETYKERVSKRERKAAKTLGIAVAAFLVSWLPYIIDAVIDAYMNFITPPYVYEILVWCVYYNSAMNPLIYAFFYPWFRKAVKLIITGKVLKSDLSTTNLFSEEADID
Described as above. The following applies: table S3. As to the method:
as §1

Assay [16] concerns the target T2, hamster TAAR9 (Mesocricetus auratus, UniProt A0A1U7R5X1).
T2 construct: Rho tag (N-terminal 20 aa of bovine rhodopsin); expressed in transfected cells; host or cells: HEK293T (SEAP assay) or Hana3A (Dual-Glo luciferase assay)
T2 sequence (A0A1U7R5X1 1-348): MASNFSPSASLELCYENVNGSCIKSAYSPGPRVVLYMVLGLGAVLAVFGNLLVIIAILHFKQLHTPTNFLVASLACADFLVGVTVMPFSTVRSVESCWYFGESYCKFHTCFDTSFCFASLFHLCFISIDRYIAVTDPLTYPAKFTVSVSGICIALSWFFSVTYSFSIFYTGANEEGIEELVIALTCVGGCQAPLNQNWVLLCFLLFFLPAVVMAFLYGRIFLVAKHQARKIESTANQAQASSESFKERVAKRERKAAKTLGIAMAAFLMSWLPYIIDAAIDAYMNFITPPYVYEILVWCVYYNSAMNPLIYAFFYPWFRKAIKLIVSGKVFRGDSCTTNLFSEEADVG
The description is as above. To be noted: table S3. Here is the method:
as §1

Assay [17] deals with cat TAAR9. Described as above. The following applies: table S3. Here is the method: as §1
For assay [18], the target named is T3, rat TAAR9 (Rattus norvegicus, UniProt Q923Y6).
T3 construct: bovine rhodopsin N-terminal 20 amino acids (Rho tag); expressed in transfected cells; host or cells: HEK293(T) (SEAP assay) or Hana3A (Dual-Glo assay)
T3 sequence (Q923Y6 1-338): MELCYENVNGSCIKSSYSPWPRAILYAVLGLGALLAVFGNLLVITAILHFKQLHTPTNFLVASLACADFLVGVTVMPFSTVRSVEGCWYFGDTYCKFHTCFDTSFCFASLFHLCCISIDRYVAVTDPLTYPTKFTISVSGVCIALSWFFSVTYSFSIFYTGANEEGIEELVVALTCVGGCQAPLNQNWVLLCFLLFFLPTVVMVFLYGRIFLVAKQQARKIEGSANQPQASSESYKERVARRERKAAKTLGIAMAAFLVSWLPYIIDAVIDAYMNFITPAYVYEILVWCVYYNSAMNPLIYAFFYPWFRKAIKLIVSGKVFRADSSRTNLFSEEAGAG
The assay is described as above. The following applies: table S3. Here is the method:
as §1

Assay [19] deals with mouse TAAR9. Set-up: method as in Saraiva et al. 2016. To be noted: ref Saraiva et al. 2016; cited from earlier work.
In assay [20] the test system is TARLL2a (also called TAAR346a). Details: method as in Scott et al. 2019. The following applies: ref Scott et al. 2019; cited from earlier work.

Chain of mouse TAAR1 (Q923Y8 whole entry): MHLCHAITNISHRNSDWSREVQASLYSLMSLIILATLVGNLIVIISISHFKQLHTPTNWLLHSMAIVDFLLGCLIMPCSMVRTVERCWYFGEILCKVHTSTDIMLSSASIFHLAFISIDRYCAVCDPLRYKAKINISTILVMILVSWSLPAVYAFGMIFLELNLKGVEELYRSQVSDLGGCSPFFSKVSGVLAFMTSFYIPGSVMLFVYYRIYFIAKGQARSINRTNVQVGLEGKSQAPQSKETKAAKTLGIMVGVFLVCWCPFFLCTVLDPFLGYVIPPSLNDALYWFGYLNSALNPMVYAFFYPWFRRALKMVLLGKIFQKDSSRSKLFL
Chain of TARLL1b (A0AAJ7TCG4 entry or part of it): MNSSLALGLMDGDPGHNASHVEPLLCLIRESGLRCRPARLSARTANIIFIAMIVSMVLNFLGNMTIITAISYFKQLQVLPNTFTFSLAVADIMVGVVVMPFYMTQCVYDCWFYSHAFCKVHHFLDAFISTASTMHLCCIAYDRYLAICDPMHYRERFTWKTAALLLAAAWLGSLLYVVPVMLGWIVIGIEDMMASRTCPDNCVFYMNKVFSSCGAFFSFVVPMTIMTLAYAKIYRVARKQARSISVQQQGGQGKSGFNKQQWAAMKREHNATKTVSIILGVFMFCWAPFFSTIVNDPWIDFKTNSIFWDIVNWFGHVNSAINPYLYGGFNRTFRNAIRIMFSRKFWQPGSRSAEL
Chain of sheep TAAR5 (A0ACI6PZ16 entry or part of it): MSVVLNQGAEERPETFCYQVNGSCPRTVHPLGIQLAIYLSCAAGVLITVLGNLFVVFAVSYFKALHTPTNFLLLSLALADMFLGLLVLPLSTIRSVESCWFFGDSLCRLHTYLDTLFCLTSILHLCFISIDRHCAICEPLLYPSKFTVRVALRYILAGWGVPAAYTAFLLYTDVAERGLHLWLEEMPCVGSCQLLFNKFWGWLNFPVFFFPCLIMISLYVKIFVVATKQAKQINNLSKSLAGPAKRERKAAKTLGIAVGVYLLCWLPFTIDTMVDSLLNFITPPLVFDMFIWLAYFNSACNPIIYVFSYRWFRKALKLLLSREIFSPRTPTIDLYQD
Chain of coelacanth TAARC1b (H3A8V0 entry or part of it): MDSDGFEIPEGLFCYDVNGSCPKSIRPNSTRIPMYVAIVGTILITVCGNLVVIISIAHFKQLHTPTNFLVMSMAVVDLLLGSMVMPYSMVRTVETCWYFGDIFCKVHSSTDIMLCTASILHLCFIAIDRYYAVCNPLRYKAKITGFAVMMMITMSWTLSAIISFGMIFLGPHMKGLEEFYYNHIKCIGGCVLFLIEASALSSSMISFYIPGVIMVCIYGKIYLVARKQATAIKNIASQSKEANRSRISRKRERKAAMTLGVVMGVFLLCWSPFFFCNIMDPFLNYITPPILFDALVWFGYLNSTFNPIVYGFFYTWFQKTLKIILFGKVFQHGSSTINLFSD
Chain of TARLL3h (A0A678XJN9 entry or part of it): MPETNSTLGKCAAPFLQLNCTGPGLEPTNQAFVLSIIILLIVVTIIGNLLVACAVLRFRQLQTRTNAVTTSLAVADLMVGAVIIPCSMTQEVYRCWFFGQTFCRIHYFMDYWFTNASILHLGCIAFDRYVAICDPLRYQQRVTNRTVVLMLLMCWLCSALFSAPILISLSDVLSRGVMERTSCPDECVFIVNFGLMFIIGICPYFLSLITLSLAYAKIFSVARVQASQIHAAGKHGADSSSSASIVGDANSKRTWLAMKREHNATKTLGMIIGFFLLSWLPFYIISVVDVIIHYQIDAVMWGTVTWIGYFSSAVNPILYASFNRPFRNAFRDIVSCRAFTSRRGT
Chain of guinea pig TAAR3 (H0W7C9 entry or part of it): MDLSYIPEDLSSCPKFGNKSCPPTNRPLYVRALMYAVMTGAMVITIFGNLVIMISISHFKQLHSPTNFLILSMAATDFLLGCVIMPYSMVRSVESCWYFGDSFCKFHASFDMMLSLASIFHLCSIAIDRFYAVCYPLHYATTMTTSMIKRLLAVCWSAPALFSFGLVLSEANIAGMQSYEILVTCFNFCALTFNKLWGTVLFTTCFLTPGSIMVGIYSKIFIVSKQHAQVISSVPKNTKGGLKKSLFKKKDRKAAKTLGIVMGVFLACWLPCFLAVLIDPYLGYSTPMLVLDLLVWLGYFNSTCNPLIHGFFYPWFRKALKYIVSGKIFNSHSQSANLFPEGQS
Chain of mouse HTR4 (P97288 whole entry): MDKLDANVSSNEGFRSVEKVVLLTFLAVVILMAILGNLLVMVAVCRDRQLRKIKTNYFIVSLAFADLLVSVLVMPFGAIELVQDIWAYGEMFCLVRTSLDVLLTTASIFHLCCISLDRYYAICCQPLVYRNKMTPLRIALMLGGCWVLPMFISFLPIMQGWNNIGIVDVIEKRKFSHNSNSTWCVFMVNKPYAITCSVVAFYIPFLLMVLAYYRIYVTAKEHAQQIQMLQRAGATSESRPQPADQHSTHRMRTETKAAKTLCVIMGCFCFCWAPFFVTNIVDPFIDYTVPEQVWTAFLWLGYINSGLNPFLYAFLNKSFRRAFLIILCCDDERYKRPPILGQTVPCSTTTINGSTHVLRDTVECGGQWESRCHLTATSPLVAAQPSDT
Chain of zebrafish TARL1 (A0A8M1Q794 entry or part of it): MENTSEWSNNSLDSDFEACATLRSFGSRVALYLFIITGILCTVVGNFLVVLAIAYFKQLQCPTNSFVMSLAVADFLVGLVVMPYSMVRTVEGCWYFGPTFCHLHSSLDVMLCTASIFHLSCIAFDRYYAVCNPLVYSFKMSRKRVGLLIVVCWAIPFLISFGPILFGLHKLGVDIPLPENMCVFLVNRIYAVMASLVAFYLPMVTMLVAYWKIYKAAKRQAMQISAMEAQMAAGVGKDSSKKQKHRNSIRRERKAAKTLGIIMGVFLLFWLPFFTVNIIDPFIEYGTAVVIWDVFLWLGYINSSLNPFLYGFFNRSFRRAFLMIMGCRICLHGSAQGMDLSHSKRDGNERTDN
Chain of zebrafish TAAR1 (Q5QNN1 entry or part of it): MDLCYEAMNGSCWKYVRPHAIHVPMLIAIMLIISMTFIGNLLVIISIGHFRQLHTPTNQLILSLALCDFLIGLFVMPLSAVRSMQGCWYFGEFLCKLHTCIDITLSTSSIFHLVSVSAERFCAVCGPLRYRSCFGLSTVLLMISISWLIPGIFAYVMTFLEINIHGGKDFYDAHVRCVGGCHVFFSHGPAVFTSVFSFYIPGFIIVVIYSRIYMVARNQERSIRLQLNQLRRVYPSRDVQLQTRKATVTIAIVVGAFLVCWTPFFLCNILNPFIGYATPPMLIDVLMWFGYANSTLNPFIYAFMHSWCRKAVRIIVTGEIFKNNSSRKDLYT

Broadly, the EC50 is the concentration that produces a half-maximal response. Compound `Cn1ccc2ccccc21` [1-methylindole] had a concentration giving a half-maximal response (EC50) in assay [1] of 162 µM.
The same measure, in the same setting: for `Cc1c[nH]c2ccccc12` [3-methylindole] the value was 6.6 µM.
As for `CSCCCN` [3-methylthiopropylamine], the response in assay [2] was half-maximal at 62.4 µM (EC50).
Consider `NCCCCCO` [5-amino-1-pentanol], for which the midpoint of the response in [2], the EC50, lay at 40.3 µM.
`COc1ccc2[nH]cc(CCN)c2c1` [5-methoxytryptamine] showed an EC50 in assay [3] of 90 nM. This counts as double-digit nanomolar.
As for `Cc1ccc2[nH]ccc2c1` [5-methylindole], the concentration giving a half-maximal response (EC50) in [1] worked out at 8.9 µM.
In [1], `Cc1ccc2cc[nH]c2c1` [6-methylindole] gave an EC50 of 9.1 µM.
The compound `Cc1cccc2cc[nH]c12` [7-methylindole] showed an EC50 in assay [1] of 37.8 µM.
In [2], `CCCCCN` [Amylamine, amylamine] showed an EC50 of 10.6 µM.
Turning to `CCCCN` [Butylamine, butylamine], in [2], the EC50 was 73.5 µM.
Still for that read-out and setting: for `NC1CCCC1` [Cyclopentylamine, cyclopentylamine] the value was 113 µM.
Regarding `CCCCCCN` [Hexylamine, hexylamine], the “response of mouse TAAR1” value in assay [4] is listed as “slight responses”. Besides, in assay [2], the EC50 came to 20.4 µM and the “ligand profile of TARLL4a” value is on record as “ligand profile includes”.
`c1ccc2[nH]ccc2c1` [Indole, indole]: in assay [1], the EC50 turned out to be 18.9 µM. The “activation of TARLL1b” value in [1] (fig. 4E, fig. S9D and E) was “can be activated”.
Regarding `CC(C)CCN` [Isoamylamine, isoamylamine], the EC50 in [2] is 141 µM; in assay [5], 300 µM and ~300 µM; in [6], 200 µM and ~200 µM.
Compound `CC(C)CN` [Isobutylamine, isobutylamine] displayed an EC50 in assay [2] of 199 µM.
Consider `CC(C)N` [Isopropylamine, isopropylamine], for which, in [2], the EC50 turned out to be 254 µM and the “ligand profile of TARLL4a” value is “ligand profile includes”.
Regarding `CN(C)CCCN(C)C` [N,N,N',N'-tetramethyl-1,3-propanediamine, N,N,N′,N′-Tetramethyl-1,3-propanediamine], the concentration giving a half-maximal response (EC50) in assay [7] (TARLL3h) is 116 µM. The “ligand recognition by TARLL3h” value in assay [7] (fig. 4C) is reported as “recognizes”.
With `CC(C)N(C)C` [N,N-dimethylisopropylamine], the concentration for a half-maximal effect (EC50) in assay [8] was 40.3 µM; in assay [9] it was 50 µM and ~50 µM.
`CCCN` [Propylamine, propylamine] registered an EC50 in [2] of 133 µM.
In the case of `NCCc1c[nH]c2ccc(O)cc12` [Serotonin, serotonin], the 50% effective concentration (EC50) in [4] (mTAAR1) is 14.4 µM; in [1] it was 0.2 µM; in [10] it was 390 nM; in [11] it was 110 nM; in assay [12] it was 830 nM and 800 nM; in assay [13] it was 100 nM. In addition, the concentration giving a half-maximal response (EC50) in assay [14] amounted to 2350 nM.
Regarding `NC1CCCCC1` [cyclohexylamine], the “ligand profile of TARLL4a” value in assay [2] is listed as “ligand profile includes”.
With `CCCCCCCN` [heptylamine], the “response of mouse TAAR1” value in assay [4] is reported as “slight responses”. Moreover, the “ligand profile of TARLL4a” value in [2] is “ligand profile includes”.
`CCCCCCCCN` [octylamine]: the “response of mouse TAAR1” value in [4] is “slight responses”.
Turning to `NCCCCNCCCN` [spermidine], the “activation of TAAR9” value in assay [15], in assay [16], in assay [17] and in [18] was “activation” in each case. In addition, the “ligand recognition by mouse TAAR9” value in [19] is “can recognize”.
For `NCCCNCCCCNCCCN` [spermine], the “ligand recognition by TARLL2a” value in [20] was “recognize”. The “activation of TAAR9” value in assay [15], in assay [16], in [17] and in [18] was “activation” each time. For the same compound, the “ligand recognition by mouse TAAR9” value in assay [19] was “can recognize”.
